System: KRAS patient-derived spheroids with HUVEC/MSC, viability
Experiment: Anticancer human tumor 941728-121-R-J1-PDC patient-derived lung adenocarcinoma cell line growth inhibition [KRAS2]
Conditions: for IC50: curve of first compound; for viability, T/C: stronger effect = lower value
How it was run: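 KRAS-mutant tumor cells were grown as spheroids with HUVEC endothelial cells and human MSCs as stroma. Targeted agents were tested alone and with KRAS pathway inhibitors. Doses started at or near clinical Cmax, or 10 microM, descending half-log.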

[1] = second compound 0.1 µM, first compound 0.00316 µM
[2] = second compound 0.1 µM, first compound 0.01 µM
[3] = second compound 0.1 µM, first compound 0.0316 µM
[4] = second compound 0.1 µM, first compound 0.1 µM
[5] = second compound 0.316 µM, first compound 0.00316 µM
[6] = second compound 0.316 µM, first compound 0.01 µM
[7] = second compound 0.316 µM, first compound 0.0316 µM
[8] = second compound 0.316 µM, first compound 0.1 µM
[9] = second compound 1 µM, first compound 0.00316 µM
[10] = second compound 1 µM, first compound 0.01 µM
[11] = second compound 1 µM, first compound 0.0316 µM
[12] = second compound 1 µM, first compound 0.1 µM
[13] = second compound 3.16 µM, first compound 0.00316 µM
[14] = second compound 3.16 µM, first compound 0.01 µM
[15] = second compound 3.16 µM, first compound 0.0316 µM
[16] = second compound 3.16 µM, first compound 0.1 µM
[17] = second compound 10 µM, first compound 0.00316 µM
[18] = second compound 10 µM, first compound 0.01 µM
[19] = second compound 10 µM, first compound 0.0316 µM
[20] = second compound 10 µM, first compound 0.1 µM
[21] = second compound 0.1 µM, first compound 0.316 µM
[22] = second compound 0.1 µM, first compound 1 µM
[23] = second compound 0.1 µM, first compound 3.16 µM
[24] = second compound 0.316 µM, first compound 0.316 µM
[25] = second compound 0.316 µM, first compound 1 µM
[26] = second compound 0.316 µM, first compound 3.16 µM
[27] = second compound 1 µM, first compound 0.316 µM
[28] = second compound 1 µM, first compound 1 µM
[29] = second compound 1 µM, first compound 3.16 µM
[30] = second compound 3.16 µM, first compound 0.316 µM
[31] = second compound 3.16 µM, first compound 1 µM
[32] = second compound 3.16 µM, first compound 3.16 µM
[33] = second compound 10 µM, first compound 0.316 µM
[34] = second compound 10 µM, first compound 1 µM
[35] = second compound 10 µM, first compound 3.16 µM
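Further: spheroids exposed to agents for seven days before readout.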

| Compound | IC50 (second compound 0.1 µM) | IC50 (second compound 0.316 µM) | IC50 (second compound 1 µM) | IC50 (second compound 3.16 µM) | IC50 (second compound 10 µM) | viability, T/C [2] | viability, T/C [3] | viability, T/C [4] | viability, T/C [6] | viability, T/C [7] | viability, T/C [8] | viability, T/C [10] | viability, T/C [11] | viability, T/C [12] | viability, T/C [14] | viability, T/C [15] | viability, T/C [16] | viability, T/C [18] | viability, T/C [19] | viability, T/C [20] | also measured |
| --- | --- | --- | --- | --- | --- | --- | --- | --- | --- | --- | --- | --- | --- | --- | --- | --- | --- | --- | --- | --- | --- |
| CN(C)C/C=C/C(=O)Nc1cc2c(Nc3ccc(F)c(Cl)c3)ncnc2cc1O[C@H]1CCOC1 + CC1OCC2(CCN(c3cnc(Sc4ccnc(N)c4Cl)c(N)n3)CC2)C1N | < 0.316 nM | < 0.316 nM | > 100 nM | < 0.316 nM | 0.52 nM | 44.5% | 41.4% | 43.3% | 42.3% | 45.8% | 41.2% | 70.6% | 58.4% | 51.9% | 31.6% | 31.3% | 36.7% | 52.5% | 31.3% | 31% | viability, T/C (second compound 0.1 µM, first compound 0.000316 µM): 38.3%; viability, T/C (second compound 0.1 µM, first compound 0.001 µM): 41.9%; viability, T/C [1]: 45.5%; viability, T/C (second compound 0.316 µM, first compound 0.000316 µM): 33.7%; viability, T/C (second compound 0.316 µM, first compound 0.001 µM): 35.2%; viability, T/C [5]: 43.1%; viability, T/C (second compound 1 µM, first compound 0.000316 µM): 70.1%; viability, T/C (second compound 1 µM, first compound 0.001 µM): 52.4%; viability, T/C [9]: 63.1%; viability, T/C (second compound 3.16 µM, first compound 0.000316 µM): 29.7%; viability, T/C (second compound 3.16 µM, first compound 0.001 µM): 28.3%; viability, T/C [13]: 30.2%; viability, T/C (second compound 10 µM, first compound 0.000316 µM): 54.6%; viability, T/C (second compound 10 µM, first compound 0.001 µM): 45%; viability, T/C [17]: 30.6% |
| CC(=O)OC12COC1CC(O)C1(C)C(=O)C(O)C3=C(C)C(OC(=O)C(O)C(NC(=O)OC(C)(C)C)c4ccccc4)CC(O)(C(OC(=O)c4ccccc4)C21)C3(C)C (stereo unspecified) + COc1cc2nc(C)nc(NC(C)c3cc(N)cc(C(F)(F)F)c3)c2cc1OC1CCOC1 | < 10 nM | < 10 nM | < 10 nM | < 10 nM | < 10 nM | 37.4% | 41.1% | 41.4% | 38.2% | 39.5% | 36% | 35.8% | 47.8% | 49.6% | 33.5% | 31.4% | 32% | 31.2% | 29.1% | 30% | viability, T/C [21]: 44.9%; viability, T/C [22]: 41.9%; viability, T/C [23]: 42.6%; viability, T/C [24]: 34.5%; viability, T/C [25]: 36.9%; viability, T/C [26]: 35.5%; viability, T/C [27]: 47.3%; viability, T/C [28]: 48%; viability, T/C [29]: 36.1%; viability, T/C [30]: 31.7%; viability, T/C [31]: 32.7%; viability, T/C [32]: 33.3%; viability, T/C [33]: 32.7%; viability, T/C [34]: 36.2%; viability, T/C [35]: 32.2% |
| CCN1CCN(Cc2ccc(Nc3ncc(F)c(-c4cc(F)c5nc(C)n(C(C)C)c5c4)n3)nc2)CC1 + CNCc1ccccc1-c1csc(C(C)Nc2nc(C)nc3cc(OC)c(OC)cc23)c1 | 6.14 nM | < 3.16 nM | < 3.16 nM | < 3.16 nM | < 3.16 nM | 43.9% | 40% | 43.7% | 38.5% | 31% | 28.9% | 25.4% | 18.7% | 17.1% | 1.57% | 1.42% | 2.24% | 0.55% | 0.84% | 0.24% | viability, T/C [1]: 58.2%; viability, T/C [21]: 38.4%; viability, T/C [22]: 53%; viability, T/C [5]: 44%; viability, T/C [24]: 30.6%; viability, T/C [25]: 46.8%; viability, T/C [9]: 22.1%; viability, T/C [27]: 16.9%; viability, T/C [28]: 5.4%; viability, T/C [13]: 1.35%; viability, T/C [30]: 0.67%; viability, T/C [31]: 2.46%; viability, T/C [17]: 0.72%; viability, T/C [33]: 0.74%; viability, T/C [34]: 0.15% |
| COC(=O)c1ccc2c(C(=Nc3ccc(N(C)C(=O)CN4CCN(C)CC4)cc3)c3ccccc3)c(O)[nH]c2c1 + C=CC(=O)N1CCN(c2nc(=O)n(-c3c(C)ccnc3C(C)C)c3nc(-c4c(O)cccc4F)c(F)cc23)C(C)C1 | < 31.6 nM | < 31.6 nM | < 31.6 nM | < 31.6 nM | < 31.6 nM | – | 24.5% | 19.7% | – | 22.8% | 20.1% | – | 26.3% | 21.2% | – | 27.1% | 25.1% | – | 41.2% | 30.2% | viability, T/C [21]: 16.4%; viability, T/C [22]: 12.7%; viability, T/C [23]: 10.2%; viability, T/C (second compound 0.1 µM, first compound 10 µM): 7.41%; viability, T/C [24]: 18.5%; viability, T/C [25]: 12.8%; viability, T/C [26]: 8.05%; viability, T/C (second compound 0.316 µM, first compound 10 µM): 6.62%; viability, T/C [27]: 16.8%; viability, T/C [28]: 14.4%; viability, T/C [29]: 7.55%; viability, T/C (second compound 1 µM, first compound 10 µM): 5.43%; viability, T/C [30]: 20.8%; viability, T/C [31]: 17.8%; viability, T/C [32]: 6.67%; viability, T/C (second compound 3.16 µM, first compound 10 µM): 8.37%; viability, T/C [33]: 31.6%; viability, T/C [34]: 29.6%; viability, T/C [35]: 4.3%; viability, T/C (second compound 10 µM, first compound 10 µM): 0.23% |
| CC(=O)OC12COC1CC(O)C1(C)C(=O)C(O)C3=C(C)C(OC(=O)C(O)C(NC(=O)OC(C)(C)C)c4ccccc4)CC(O)(C(OC(=O)c4ccccc4)C21)C3(C)C (stereo unspecified) | – | – | – | – | – | – | – | – | – | – | – | – | – | – | – | – | – | – | – | – | viability, T/C (compound 0.01 µM): 53% [middle of 5 runs]; viability, T/C (compound 0.0316 µM): 46.3% [middle of 5 runs]; viability, T/C (compound 0.1 µM): 46.2% [middle of 5 runs]; viability, T/C (compound 0.316 µM): 46.5% [middle of 5 runs]; viability, T/C (compound 1 µM): 53.8% [middle of 5 runs]; viability, T/C (compound 3.16 µM): 55.1% [middle of 5 runs] |
